Key:
[1] = Solubility of flumioxazin in organic solvents
[2] = Chemical degradation of flumioxazin in contact with aqueous salt solution
[3] = at 20° C.; cited from earlier work
[4] = system: tsuyukusa (Commelina communis); test: Greenhouse tank-mix study, herbicidal effectiveness (Table 1); type: in vivo; details: glyphosate 2160 g a.e./ha + flumioxazin 0 g/ha
Excerpt: (§1) Tank-mix studies have shown that addition of a relatively small amount of flumioxazin to glyphosate alleviates both the above-mentioned disadvantages. Data from a tank-mix study in a greenhouse illustrating the benefit of simultaneous application of glyphosate+flumioxazin over a higher rate of glyphosate alone are presented in Table 1. Herbicide rates are given in grams per hectare (g/ha); rates shown for glyphosate (which was applied in this study as the isopropylammonium salt) are expressed as acid equivalent (a.e.). Herbicidal effectiveness is measured as percent inhibition by comparison with untreated plants, based on visual assessment by a technician trained in the art of making such assessments, at four times, namely 3, 7, 20 and 27 days after treatment (DAT). Data are presented for two dicotyledonous weed species, “inutade” (Polygonum longisetum) and “tsuyukusa” (Commelina communis), that are known to tolerate high rates of glyphosate.

[5] = system: inutade (Polygonum longisetum); test: as above; type: in vivo; details: glyphosate 2160 g a.e./ha + flumioxazin 0 g/ha
Excerpt: as §1

[6] = Adsorption of glyphosate by colloidal hydrophilic silica (HPLC of supernatant); type: physicochemical; details: 23% a.e. aqueous solution of glyphosate isopropylammonium salt, 20° C., 16 hours
Excerpt: Where the water-soluble active ingredient is a salt of the herbicide glyphosate, it was initially feared that addition of colloidal hydrophilic silica might reduce herbicidal effectiveness by adsorption of glyphosate to the silica. A test was therefore conducted to determine the degree of adsorption of glyphosate by the highest concentration of colloidal hydrophilic silica likely to be used in a composition of the invention, i.e. 5% by weight, and by even higher concentrations.
The procedure for this test is to add a weighed amount of Aerosil™ COK-84 colloidal hydrophilic silica to a measured volume of glyphosate isopropylammonium salt solution of known concentration (23% a.e. by weight) in a stoppered glass bottle and agitate gently at a temperature of 20° C. for 16 hours. The solution is then centrifuged to deposit the silica, leaving a clear supematant. The supernatant is analyzed for glyphosate by HPLC. The amount of adsorption is calculated from the reduction in glyphosate concentration in the supernatant solution by comparison with the initial concentration.

Compound | solubility in organic solvent ([1]; benzyl acetate) | solubility in organic solvent ([1]; phenylxylylethane) | rate of chemical degradation ([2]; benzyl acetate as the organic solvent, compared with phenylxylylethane) | chemical degradation ([2]; composition of the invention, aqueous phase mono(isopropylammonium) glyphosate pH about 4.5 to about 5, even at elevated temperatures) | chemical degradation ([2]; exposed to a concentrated aqueous salt solution such as a solution of glyphosate salt for prolonged periods) | rate of degradation ([2]; pH of the aqueous phase raised (addition of a base or dibasic salt of glyphosate)) | specific gravity [3] | percent inhibition ([4]; 3 DAT) [%] | percent inhibition ([4]; 7 DAT) [%] | percent inhibition ([4]; 20 DAT) [%] | percent inhibition ([4]; 27 DAT) [%] | percent inhibition ([5]; 3 DAT) [%] | percent inhibition ([5]; 7 DAT) [%] | percent inhibition ([5]; 20 DAT) [%] | percent inhibition ([5]; 27 DAT) [%] | glyphosate adsorption ([6]; silica concentration 10%) [%] | glyphosate adsorption ([6]; silica concentration 20%) [%]
C#CCN1C(=O)COc2cc(F)c(N3C(=O)C4=C(CCCC4)C3=O)cc21 [flumioxazin, 2-[7-fluoro-3,4-dihydro-3-oxo-4-(2-propynyl)-2H-1,4-benzoxazin-6-yl]-4,5,6,7-tetrahydro-1H-isoindole-1,3(2H)-dione] | rather soluble | only very sparingly soluble | much more rapid | insignificant | undergo chemical degradation | significant increase | 1.51 | – | – | – | – | – | – | – | – | – | –
O=C(O)CNCP(=O)(O)O [glyphosate, N-phosphonomethylglycine] | – | – | – | – | – | – | – | 0 | 0 | 50 | 62 | 0 | 0 | 45 | 70 | 12 | 40
